Experiments:
[1] = test system: mouse maximal electroshock seizure (MES) model; test: Maximal electroshock seizure (MES) test, mouse; assay type: in vivo; settings: MES, mouse; read-out: Mouse ED50
Excerpt: (§1) The MES testing protocol is based on procedures established at the National Institute of Neurological Disorders and Stroke in conjunction with the Anticonvulsant Screening Program (ASP) at the University of Utah (White, H. S., Woodhead, J. H., Wilcox, K. S., Stables, J. P., Kupferberg, H. J and Wolf, H. H. 2002. “General Principles: Discovery and Preclinical Development of Antiepileptic Drugs,” in Antiepileptic Drugs, 5th Edition, R. H. Levy, ed.; R. H. Mattson, B. S. Meldrum, and E. Perucca. Philadelphia, Lippincott Williams & Wilkins.), The goal of the test rapid identification and characterization of the in vivo anticonvulsant activity of any compounds that have been shown active in PC-12 cellular based Rb^+ efflux assay.
(§2) Adult male CF-I albino mice (18-25 g, Charles River Laboratories) are exclusively used for in-house MES screen of compounds. Male Sprague-Dawley albino rats (100-125 g, Charles River Laboratories) are also used to test anticonvulsant compounds. Variability of test outcomes is reduced by using animals of the same sex, age, and weight. Animals are permitted to rest and recover from transit for at least 48 hr prior to experimentation. Animals are used for AED testing only once. In some instances, the animals may be anesthetized prior to blood collection and/or whole brain extraction for pharmacokinetic assay. All animals are maintained and handled as outlined in standard animal care guidelines.
(§3) In the experiments, testing compounds are prepared as suspensions in 0.5% methyl cellulose (Sigma, Cat #M0512, Viscosity 4000 cP at 20° C.) in water, regardless of solubility. Dry powder compounds are initially ground with a glass rod in a test tube in several drops of methyl cellulose to create a paste and to break down any large chunks. After several minutes of grinding, the volume of the suspension is increased to the final concentration desired. The suspension is then sonicated using a Branson sonicator model 3510 in a water bath at room temperature for 15 minutes. Compound suspensions are further vortexed prior to animal dosing. In some of the cases, DMSO is used to initially solubilize compounds in small volumes and then this solution is added to the 0.5% methyl cellulose solution, in order to create more even and less aggregated compound suspensions. The final concentration of DMSO is 3.75%, an amount with no apparent toxicity or neuroprotective effects in our usual rotarod and MES tests. Methyl cellulose/DMSO compound suspensions are identically prepared for intraperitoneally (i.p.) to mice or orally (p.o.) to rat dosing.
Initially the animals are weighed with an electronic scale and then marked. Data recording sheets are generated for each compound assessment. Mice or rats are dosed with the compound suspension at 0.01 mL/g of body weight. The typical injection volume range is between 180-250 μl for mice. […] Rats are p.o. dosed using a flexible feeding tube, typically starting at a compound dose of 5 mg/kg.
A Rodent Electroconvulsive Stimulator (Model 200, Hamit-Darvin-Freesh, Snow Canyon Clinic, Ivins, Utah) is used for MES testing. A 60-Hz alternating current (50 mA for mice; 150 mA for rats) is delivered for 0.2 seconds through corneal electrodes to the mice. A drop of 0.5% tetracaine (Sigma, Cat. #T-7508) solution is placed on the eye prior to current delivery. The electrodes are subsequently placed gently onto the eyes of the animal and the electrical shock is initiated by triggering through a foot-pedal activator. The animals are restrained by hand and gently released as the shock is delivered and the seizure commences. Animals are monitored for hind limb tonic extension as the end point for this test. Current delivery is recorded as a measure of overall seizure-induction potential. Electrical current delivery can vary from approximately 30-55 mA (mice) or 90-160 mA (rats) depending on impedance in the animal and quality of the current delivery (ie. correct placement of the electrodes on the cornea). […]

[2] = test system: rat MES model of epilepsy; test: Maximal electroshock seizure (MES) test, rat; assay type: in vivo; settings: MES, rat; read-out: Rat ED50
Excerpt: as §1, §2, §3
Initially the animals are weighed with an electronic scale and then marked. Data recording sheets are generated for each compound assessment. Mice or rats are dosed with the compound suspension at 0.01 mL/g of body weight. The typical injection volume range is between 180-250 μl for mice. Compounds are dosed by i.p. to mice using a 25 or 22 gauge needle, depending on the viscosity of the suspension. Rats are p.o. dosed using a flexible feeding tube, typically starting at a compound dose of 5 mg/kg.
A Rodent Electroconvulsive Stimulator (Model 200, Hamit-Darvin-Freesh, Snow Canyon Clinic, Ivins, Utah) is used for MES testing. A 60-Hz alternating current (50 mA for mice; 150 mA for rats) is delivered for 0.2 seconds through corneal electrodes to the mice. […] Animals are monitored for hind limb tonic extension as the end point for this test. Current delivery is recorded as a measure of overall seizure-induction potential. […]

KCNQ2/3 = KCNQ2/3 (Homo sapiens, UniProt O43525+O43526); test: Two-electrode voltage-clamp in Xenopus laevis oocytes, KCNQ2/3; assay type: cell-based; settings: oocyte expression, at EC75
Protocol: (§4) Female Xenopus laevis extracted ovaries were purchased from eNASCO (LM00935MX, eNASCO Fort Atkinson, Wis.). […] Approximately 50 nl cRNA (about 50 ng) was injected for KCNQ1, KCNQ4, and KCNQ5 using a Nanoject microinjector (Drummond, Broomall, Pa., USA). For co-expression of KCNQ2 and KCNQ3 and of KCNQ1 and KCNE1, cRNA's were mixed in equal molar ratios before injection of approximately 50 nl. […] Oocytes were kept in Culture Barth solution at 19° C. which was changed daily and currents were recorded after 3 to 5 days.
(§5) KCNQ channel currents expressed in Xenopus laevis oocytes were recorded using a two-electrode voltage-clamp. […] The oocytes were placed in custom built perfusion chambers connected to a continuous flow system and impaled with a current electrode and a voltage-clamp electrode pulled from borosilicate glass on a Flaming/Brown Micropipette Puller (Sutter Instruments Co, Novato, Calif., USA).
(§6) All compounds were dissolved in DMSO to obtain concentrated stock solutions. On the day of electrophysiological experiments the stock solutions were thawed and diluted in recording solution to their final concentrations. The final DMSO concentration never exceeded 0.1%. Compound delivery was performed using a custom built multi-barrel apparatus connected to the flow system.
(§7) Data were acquired by means of an Axograph X software (Axograph Scientific, Sydney, AU) and analyzed using Graph Pad Prism (GraphPad Software Inc., CA, USA). […]
(§8) After steady channel current was recorded in the presence of Retigabine at its EC75, recorded oocyte was washed with the recording solution until its steady current returned to its normal level without the presence of any drugs. Then the channel steady current was recorded in the presence of the test compound at its EC75. The percent efficacy was then expressed as: % efficacy=(C2/C 1)×100 where C2 is the recorded steady current in the presence of follow-on compound at its EC75 and C1 is the recorded steady current in the presence of Retigabine at its EC75.

KCNQ1 = KCNQ1 (Homo sapiens, UniProt P51787); test: Two-electrode voltage-clamp in Xenopus laevis oocytes, KCNQ1; assay type: cell-based; set-up: KCNQ1 Block (%): dose or concentration left out as unconfirmed; settings: oocyte expression
Protocol: as §4, §5, §6, §7, §8

KCNQ4 = KCNQ4 (Homo sapiens, UniProt P56696); test: Two-electrode voltage-clamp in Xenopus laevis oocytes, KCNQ4; assay type: cell-based; settings: oocyte expression, at EC75
Protocol: as §4, §5, §6, §7, §8

KCNQ1/NE1 = KCNQ1/NE1 (Homo sapiens, UniProt P51787); test: Two-electrode voltage-clamp in Xenopus laevis oocytes, KCNQ1/KCNE1; assay type: cell-based; set-up: dose or concentration left out as unconfirmed; settings: oocyte expression
KCNQ1/NE1, sequence (P51787 whole entry): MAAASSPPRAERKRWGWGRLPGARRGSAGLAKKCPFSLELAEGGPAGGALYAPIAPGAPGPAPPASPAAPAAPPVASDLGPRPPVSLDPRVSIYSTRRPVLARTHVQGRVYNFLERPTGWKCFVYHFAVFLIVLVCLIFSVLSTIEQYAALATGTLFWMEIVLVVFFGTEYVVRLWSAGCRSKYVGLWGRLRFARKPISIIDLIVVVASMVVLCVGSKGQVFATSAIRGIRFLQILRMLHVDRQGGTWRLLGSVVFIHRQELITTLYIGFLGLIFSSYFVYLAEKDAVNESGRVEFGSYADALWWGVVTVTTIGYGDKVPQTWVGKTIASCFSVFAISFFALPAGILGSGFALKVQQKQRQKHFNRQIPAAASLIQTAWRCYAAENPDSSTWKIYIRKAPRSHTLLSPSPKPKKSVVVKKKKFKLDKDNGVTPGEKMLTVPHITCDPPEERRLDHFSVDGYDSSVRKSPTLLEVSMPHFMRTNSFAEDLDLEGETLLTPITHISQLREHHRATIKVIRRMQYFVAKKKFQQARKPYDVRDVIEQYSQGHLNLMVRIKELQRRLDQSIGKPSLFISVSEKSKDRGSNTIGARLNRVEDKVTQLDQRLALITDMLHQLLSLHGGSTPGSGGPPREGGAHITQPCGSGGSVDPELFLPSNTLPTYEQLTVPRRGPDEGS
Protocol: as §4
KCNQ channel currents expressed in Xenopus laevis oocytes were recorded using a two-electrode voltage-clamp. […]
as §7, §8

KCNQ5 = KCNQ5 (Homo sapiens, UniProt Q9NR82); test: Two-electrode voltage-clamp in Xenopus laevis oocytes, KCNQ5; assay type: cell-based; settings: oocyte expression, at EC75
Protocol: as §4, §5, §6, §7, §8

KCNQ2 channels = molecular target: T1, KCNQ2 channels (Homo sapiens, UniProt O43526); test: Potassium ion efflux, KCNQ2 channels expressed in CHO cells; assay type: cell-based
T1 construct: expressed in transfected cells; host or cells: CHO cells
T1 sequence (O43526 whole entry): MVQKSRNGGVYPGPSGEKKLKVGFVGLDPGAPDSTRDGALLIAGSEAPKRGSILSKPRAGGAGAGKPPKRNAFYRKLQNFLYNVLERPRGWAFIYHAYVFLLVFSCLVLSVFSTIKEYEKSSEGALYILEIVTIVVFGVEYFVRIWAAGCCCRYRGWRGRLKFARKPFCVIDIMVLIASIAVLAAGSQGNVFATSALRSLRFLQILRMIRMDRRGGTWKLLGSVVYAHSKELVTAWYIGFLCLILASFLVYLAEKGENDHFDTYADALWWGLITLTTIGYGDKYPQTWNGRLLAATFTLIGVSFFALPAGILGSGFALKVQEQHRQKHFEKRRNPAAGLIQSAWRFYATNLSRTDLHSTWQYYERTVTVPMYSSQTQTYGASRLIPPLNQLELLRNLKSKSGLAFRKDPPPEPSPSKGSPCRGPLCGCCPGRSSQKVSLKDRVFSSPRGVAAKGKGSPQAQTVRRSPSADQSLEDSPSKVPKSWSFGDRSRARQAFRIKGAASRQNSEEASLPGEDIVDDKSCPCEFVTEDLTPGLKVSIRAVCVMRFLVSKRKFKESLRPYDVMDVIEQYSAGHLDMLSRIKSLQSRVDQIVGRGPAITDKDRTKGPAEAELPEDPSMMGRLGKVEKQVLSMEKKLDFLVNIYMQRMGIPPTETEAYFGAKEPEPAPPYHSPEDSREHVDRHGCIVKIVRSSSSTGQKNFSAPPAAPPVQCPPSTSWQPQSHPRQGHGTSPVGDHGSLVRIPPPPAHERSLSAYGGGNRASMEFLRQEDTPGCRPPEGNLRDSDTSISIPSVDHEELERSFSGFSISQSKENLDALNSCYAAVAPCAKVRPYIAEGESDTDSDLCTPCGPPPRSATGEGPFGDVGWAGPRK
Protocol: Using natively expressed M-currents present in differentiated pheochromocytoma (PC-12) cells and CHO cells transfected with KCNQ2 and hERG potassium channels, the in vitro activity of compound A on potassium ion efflux was determined.
The EC50 values for retigabine and compound A on the activation of KCNQ2 channels expressed in CHO cells were determined on three separate occasions in triplicate.

Structure (SMILES) | ED50 [1] [mg/kg] | other results
CC(C)(C)CC(=O)Nc1c(Cl)cc(N2CCc3ccccc3C2)cc1C(F)(F)F | > 12 | 
O=C(CCC1CCCC1)Nc1c(Cl)cc(N2CCc3ccccc3C2)cc1C(F)(F)F | > 12 | 
Cc1cc(N2CCc3ccccc3C2)cc(C)c1NC(=O)CC(C)(C)C | 0.12 to 1.2 | 
CC(C)(C)CC(=O)Nc1c(Cl)cc(N2CCc3cc(F)ccc3C2)cc1C(F)(F)F | > 12 | 
Cc1cc(N2CCc3ccccc3C2)cc(Cl)c1NC(=O)CC(C)(C)C | 0.12 to 1.2 | 
Cc1cc(N2CCc3ccc(F)cc3C2)cc(C)c1NC(=O)CC(C)(C)C | 0.12 to 1.2 | 
Cc1cc(N2CCc3cc(F)ccc3C2)cc(Cl)c1NC(=O)CC(C)(C)C | > 12 | 
Cc1cc(N2CCc3cc(C(F)(F)F)ccc3C2)cc(Cl)c1NC(=O)CC(C)(C)C | > 12 | 
CC(C)(C)CC(=O)Nc1c(Cl)cc(N2CCc3cc(C(F)(F)F)ccc3C2)cc1C(F)(F)F | > 12 | 
Cc1cc(N2CCc3cc(C(F)(F)F)ccc3C2)cc(C)c1NC(=O)CC(C)(C)C | 0.12 to 1.2 | ED50 [2]: 0.12 to 1.2 mg/kg
O=C(CCC1CCCC1)Nc1c(Cl)cc(N2CCc3cc(F)ccc3C2)cc1C(F)(F)F | > 12 | 
Cc1cc(N2CCc3cc(Cl)ccc3C2)cc(C)c1NC(=O)CC(C)(C)C | 0.12 to 1.2 | 
CC(C)(C)CC(=O)Nc1c(Cl)cc(N2CCc3cc(Cl)ccc3C2)cc1C(F)(F)F | > 12 | 
Cc1cc(N2CCc3ccc(F)cc3C2)cc(Cl)c1NC(=O)CC(C)(C)C | 0.12 to 1.2 | 
Cc1cc(N2CCc3cc(Cl)ccc3C2)cc(Cl)c1NC(=O)CC(C)(C)C | 0.12 to 1.2 | 
CC(C)(C)CC(=O)Nc1c(Cl)cc(N2CCc3ccc(F)cc3C2)cc1C(F)(F)F | > 12 | 
CC(C)(C)CC(=O)Nc1ccc(N2CCc3cc(F)ccc3C2)cc1Cl | > 12 | 
CC(C)(C)CC(=O)Nc1ccc(N2CCc3cc(F)ccc3C2)cc1C(F)(F)F | 0.12 to 1.2 | 
CC(C)(C)CC(=O)Nc1ccc(N2CCc3cc(C(F)(F)F)ccc3C2)cc1Cl | > 12 | 
Cc1cc(N2CCc3ccc(C(F)(F)F)cc3C2)cc(C)c1NC(=O)CC(C)(C)C | 0.12 to 1.2 | ED50 [2]: 0.12 to 1.2 mg/kg
COc1cc(N2CCc3ccccc3C2)cc(C)c1NC(=O)CC(C)(C)C | 0.12 to 1.2 | 
CC(C)(C)CC(=O)Nc1c(Cl)cc(N2CCc3ccccc3C2)cc1OC(F)(F)F | > 12 | 
COc1cc(N2CCc3ccccc3C2)cc(OC)c1NC(=O)CC(C)(C)C | 0.12 to 1.2 | ED50 [2]: 0.12 to 1.2 mg/kg
CC(C)(C)CC(=O)Nc1ccc(N2CCc3ccc(C(F)(F)F)cc3C2)cc1C(F)(F)F | 0.12 to 1.2 | 
COc1ccc2c(c1)CCN(c1cc(C)c(NC(=O)CC(C)(C)C)c(C)c1)C2 | > 12 | 
Cc1cc(N2CCc3cc(F)ccc3C2)cc(C)c1NC(=O)CC(C)(C)C [drawing 119] | 0.12 to 1.2 | ED50 [2]: 0.12 to 1.2 mg/kg
CCOC(=O)Nc1ccc(NCc2ccc(F)cc2)cc1N [retigabine, N-[2-amino-4-(4-fluorobenzylamino)phenyl]carbamic acid, ethyl ester, reference compound] |  | KCNQ2/3 Efficacy Relative to Retigabine (%) (KCNQ2/3): 100%; KCNQ1 Block (%) (KCNQ1): 12%; KCNQ4 Efficacy Relative to Retigabine (%) (KCNQ4): 100%; KCNQ1/NE1 Block (%) (KCNQ1/NE1): 4.3%; KCNQ5 Efficacy Relative to Retigabine (%) (KCNQ5): 100%; EC50 (KCNQ2 channels): 291 nM

From patent publication US8993593B2, “N-(4-(6-fluoro-3,4-dihydroisoquinolin-2(1H)-yl)-2,6-dimethylphenyl)-3,3-dimethylbutanamide as potassium channel modulators” (Valeant Pharmaceuticals International, priority 2006, dated 2015)
